Measurements as given in patent US20260130919A1 (priority 2023, published 2026).

Assays:
[1] = test system: peripheral T-cell lymphoma (PTCL); test: Randomized Phase 2 dose finding study of Pralatrexate-COP versus CHOP; parameters: species or system human; conditions: in vivo, iv
Protocol: This experiment was performed to identify the suitable dose of Pralatrexate that would be optimal in polychemotherapy for the next study (phase-III) based on safety and ORR (objective response rate) at 3 months. Initially, a lower dose of 20 mg/m^2 was compared to 30 mg/m^2 combined with COP. Therefore, these two dose levels were assigned randomly to 20 patients in addition to COP (Pralatrexate-COP). […] Dose effect on polyglutamate-Pralatrexate, DNA hypomethylation or H3-acetylation was evaluated in this part of the study as a surrogate for PD (pharmacodynamics) drug exposure. […] Further objective of dose finding study was also to evaluate the safety profiles for patients with newly diagnosed PTCL treated with Pralatrexate-COP compared to CHOP alone.
In the dose finding study, each investigational arm was having two dose levels which was compared with CHOP as reference. Treatment was randomized in three arms, Group 1a (Pralatrexate-COP) Pralatrexate 20 mg/m^2, Group 1b Pralatrexate 30 mg/m^2, all added to standard CHOP or COP respectively, and Group 2 for CHOP alone. […]

PTCL = conditions: anthracycline-based regimens; cited from earlier work
[2] = cumulative dose of doxorubicin >200 mg/m^2, CHOP regimen, aggressive Non-Hodgkin Lymphoma patients; cited from earlier work

Structure (SMILES) | effect in combination with COP [1] | survival impact of inclusion in a polychemotherapy regimen (PTCL) | patients with cardiac events [2]
C#CCC(Cc1cnc2nc(N)nc(N)c2n1)c1ccc(C(=O)N[C@@H](CCC(=O)O)C(=O)O)cc1 (mixture of isomers) [Pralatrexate] | synergistic effect |  | 
COc1cccc2c1C(=O)c1c(O)c3c(c(O)c1C2=O)C[C@@](O)(C(=O)CO)C[C@@H]3O[C@H]1C[C@H](N)[C@H](O)[C@H](C)O1 [Doxorubicin] |  | not associated with a survival improvement | 27%
